What was measured:
Assay in all cases: relative viability (nuclei count vs DMSO), 5 days (fraction); higher = more cells survive
HCC-366 = system: HCC-366
Procedure, shortened: (§1)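 Nuclei were stained with Hoechst during a one-step fixation (final 0.05% Triton X-100, 1% formaldehyde, 1 ug/ml Hoechst) carried out 5 days after dosing, then counted on 4× images. The cells, lung cancer lines in 1536-well plates, had been dosed by pin tool the day after seeding with one drug alone or a fixed anchor-drug dose plus five library-drug doses (not always all listed) in √10 steps. Relative viability is the nuclei count in treated wells divided by that in vehicle wells, and each value is the median of duplicate plates.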

NCI-H2228 = system: NCI-H2228
Procedure, shortened: as §1

NCI-H23 = system: NCI-H23
Procedure, shortened: as §1

HOP-62 = system: HOP-62
Procedure, shortened: as §1

COR-L 105 = system: COR-L 105
Procedure, shortened: as §1

NCI-H1355 = system: NCI-H1355
Procedure, shortened: as §1

SW 1573 = system: SW 1573
Procedure, shortened: as §1

NCI-H1437 = system: NCI-H1437
Procedure, shortened: as §1

EMC-BAC-2 = system: EMC-BAC-2
Procedure, shortened: as §1

NCI-H1755 = system: NCI-H1755
Procedure, shortened: as §1

NCI-H1975 = system: NCI-H1975
Procedure, shortened: as §1

CAL-12T = system: CAL-12T
Procedure, shortened: as §1

LCLC-103H = system: LCLC-103H
Procedure, shortened: as §1

NCI-H1395 = system: NCI-H1395
Procedure, shortened: as §1

NCI-H727 = system: NCI-H727
Procedure, shortened: as §1

NCI-H460 = system: NCI-H460
Procedure, shortened: as §1

A-427 = system: A-427
Procedure, shortened: as §1

SK-LU-1 = system: SK-LU-1
Procedure, shortened: as §1

NCI-H1915 = system: NCI-H1915
Procedure, shortened: as §1

HARA = system: HARA
Procedure, shortened: as §1

HCC-827 = system: HCC-827
Procedure, shortened: as §1

NCI-H2009 = system: NCI-H2009
Procedure, shortened: as §1

Work on `NC(=O)Nc1cc(-c2cccc(F)c2)sc1C(=O)N[C@H]1CCCNC1` [AZD7762] + O=C(CCCCCCC(=O)Nc1ccccc1)NO [Vorinostat] (partner 1 µM) yielded a relative viability (HCC-366; first compound 0.01 µM) of 0.455, a relative viability (HCC-366; first compound 0.03162 µM) of 0.301 and a relative viability (HCC-366; first compound 0.1 µM) of 0.39. The relative viability (HCC-366; first compound 0.3162 µM) was 0.188, the relative viability (HCC-366; first compound 1 µM) was 0.104 and the relative viability (NCI-H2228; first compound 0.01 µM) was 1.06. It also gave a relative viability (NCI-H2228; first compound 0.03162 µM) of 0.443, a relative viability (NCI-H2228; first compound 0.1 µM) of 0.59 and a relative viability (NCI-H2228; first compound 0.3162 µM) of 0.383. The relative viability (NCI-H2228; first compound 1 µM) was 0.299, the relative viability (NCI-H23; first compound 0.01 µM) was 0.634 and the relative viability (NCI-H23; first compound 0.03162 µM) was 0.503. The relative viability (NCI-H23; first compound 0.1 µM) was 0.582, the relative viability (NCI-H23; first compound 0.3162 µM) was 0.248 and the relative viability (NCI-H23; first compound 1 µM) was 0.149. It also gave a relative viability (HOP-62; first compound 0.01 µM) of 0.571, a relative viability (HOP-62; first compound 0.03162 µM) of 0.68 and a relative viability (HOP-62; first compound 0.1 µM) of 0.701. For the same compound, the relative viability (HOP-62; first compound 0.3162 µM) was 0.607, the relative viability (HOP-62; first compound 1 µM) was 0.237 and the relative viability (COR-L 105; first compound 0.01 µM) was 0.989. The relative viability (COR-L 105; first compound 0.03162 µM) was 0.823, the relative viability (COR-L 105; first compound 0.1 µM) was 0.808 and the relative viability (COR-L 105; first compound 0.3162 µM) was 0.609. It also gave a relative viability (COR-L 105; first compound 1 µM) of 0.444, a relative viability (NCI-H1355; first compound 0.01 µM) of 0.609 and a relative viability (NCI-H1355; first compound 0.03162 µM) of 0.629. It also gave a relative viability (NCI-H1355; first compound 0.1 µM) of 0.649, a relative viability (NCI-H1355; first compound 0.3162 µM) of 0.647 and a relative viability (NCI-H1355; first compound 1 µM) of 0.379. For the same compound, the relative viability (SW 1573; first compound 0.01 µM) was 1.16, the relative viability (SW 1573; first compound 0.03162 µM) was 0.994 and the relative viability (SW 1573; first compound 0.1 µM) was 0.821. The relative viability (SW 1573; first compound 0.3162 µM) was 0.648, the relative viability (SW 1573; first compound 1 µM) was 0.102 and the relative viability (NCI-H1437; first compound 0.01 µM) was 0.964. For the same compound, the relative viability (NCI-H1437; first compound 0.03162 µM) was 0.85, the relative viability (NCI-H1437; first compound 0.1 µM) was 0.88 and the relative viability (NCI-H1437; first compound 0.3162 µM) was 0.639. For the same compound, the relative viability (NCI-H1437; first compound 1 µM) was 0.49, the relative viability (EMC-BAC-2; first compound 0.01 µM) was 0.416 and the relative viability (EMC-BAC-2; first compound 0.03162 µM) was 0.475. It also gave a relative viability (EMC-BAC-2; first compound 0.1 µM) of 0.523, a relative viability (EMC-BAC-2; first compound 0.3162 µM) of 0.456 and a relative viability (EMC-BAC-2; first compound 1 µM) of 0.456. The relative viability (NCI-H1755; first compound 0.01 µM) was 0.804, the relative viability (NCI-H1755; first compound 0.03162 µM) was 0.723 and the relative viability (NCI-H1755; first compound 0.1 µM) was 0.72. For the same compound, the relative viability (NCI-H1755; first compound 0.3162 µM) was 0.663, the relative viability (NCI-H1755; first compound 1 µM) was 0.423 and the relative viability (NCI-H1975; first compound 0.01 µM) was 0.725. For the same compound, the relative viability (NCI-H1975; first compound 0.03162 µM) was 0.641, the relative viability (NCI-H1975; first compound 0.1 µM) was 0.655 and the relative viability (NCI-H1975; first compound 0.3162 µM) was 0.626. It also gave a relative viability (NCI-H1975; first compound 1 µM) of 0.401, a relative viability (CAL-12T; first compound 0.01 µM) of 0.861 and a relative viability (CAL-12T; first compound 0.03162 µM) of 0.693. The relative viability (CAL-12T; first compound 0.1 µM) was 0.9, the relative viability (CAL-12T; first compound 0.3162 µM) was 0.276 and the relative viability (CAL-12T; first compound 1 µM) was 0.167. The relative viability (LCLC-103H; first compound 0.01 µM) was 0.857, the relative viability (LCLC-103H; first compound 0.03162 µM) was 0.776 and the relative viability (LCLC-103H; first compound 0.1 µM) was 0.842. It also gave a relative viability (LCLC-103H; first compound 0.3162 µM) of 0.591, a relative viability (LCLC-103H; first compound 1 µM) of 0.69 and a relative viability (NCI-H1395; first compound 0.01 µM) of 0.721. The relative viability (NCI-H1395; first compound 0.03162 µM) was 0.84, the relative viability (NCI-H1395; first compound 0.1 µM) was 0.684 and the relative viability (NCI-H1395; first compound 0.3162 µM) was 0.32. It also gave a relative viability (NCI-H1395; first compound 1 µM) of 0.336, a relative viability (NCI-H727; first compound 0.01 µM) of 1.18 and a relative viability (NCI-H727; first compound 0.03162 µM) of 1.26. For the same compound, the relative viability (NCI-H727; first compound 0.1 µM) was 1.2, the relative viability (NCI-H727; first compound 0.3162 µM) was 1.24 and the relative viability (NCI-H727; first compound 1 µM) was 0.868. For the same compound, the relative viability (NCI-H460; first compound 0.01 µM) was 0.885, the relative viability (NCI-H460; first compound 0.03162 µM) was 0.63 and the relative viability (NCI-H460; first compound 0.1 µM) was 0.684. The relative viability (NCI-H460; first compound 0.3162 µM) was 0.216, the relative viability (NCI-H460; first compound 1 µM) was 0.0532 and the relative viability (A-427; first compound 0.01 µM) was 0.875. For the same compound, the relative viability (A-427; first compound 0.03162 µM) was 0.874, the relative viability (A-427; first compound 0.1 µM) was 0.857 and the relative viability (A-427; first compound 0.3162 µM) was 0.728. The relative viability (A-427; first compound 1 µM) was 0.41, the relative viability (SK-LU-1; first compound 0.01 µM) was 0.909 and the relative viability (SK-LU-1; first compound 0.03162 µM) was 0.663. The relative viability (SK-LU-1; first compound 0.1 µM) was 0.563, the relative viability (SK-LU-1; first compound 0.3162 µM) was 0.273 and the relative viability (SK-LU-1; first compound 1 µM) was 0.276. For the same compound, the relative viability (NCI-H1915; first compound 0.01 µM) was 0.567, the relative viability (NCI-H1915; first compound 0.03162 µM) was 0.526 and the relative viability (NCI-H1915; first compound 0.1 µM) was 0.462. It also gave a relative viability (NCI-H1915; first compound 0.3162 µM) of 0.474, a relative viability (NCI-H1915; first compound 1 µM) of 0.373 and a relative viability (HARA; first compound 0.01 µM) of 0.454. It also gave a relative viability (HARA; first compound 0.03162 µM) of 0.483, a relative viability (HARA; first compound 0.1 µM) of 0.509 and a relative viability (HARA; first compound 0.3162 µM) of 0.503. The relative viability (HARA; first compound 1 µM) was 0.451, the relative viability (HCC-827; first compound 0.01 µM) was 0.984 and the relative viability (HCC-827; first compound 0.03162 µM) was 0.947. For the same compound, the relative viability (HCC-827; first compound 0.1 µM) was 0.846, the relative viability (HCC-827; first compound 0.3162 µM) was 0.753 and the relative viability (HCC-827; first compound 1 µM) was 0.618. It also gave a relative viability (NCI-H2009; first compound 0.01 µM) of 0.794, a relative viability (NCI-H2009; first compound 0.03162 µM) of 0.733 and a relative viability (NCI-H2009; first compound 0.1 µM) of 0.693. It also gave a relative viability (NCI-H2009; first compound 0.3162 µM) of 0.688 and a relative viability (NCI-H2009; first compound 1 µM) of 0.625.

— the supplement of paper PMC10307832
